# Source: publication PMC6270209, “Synthesis, Antimycobacterial Activity and In Vitro Cytotoxicity of 5-Chloro-N-phenylpyrazine-2-carboxamides” (Molecules, 2013)
# Like-named read-outs stand apart in the source and are kept apart here.
# Columns and labels:
# HepG2 cells = conditions: for Cytotoxicity SI: SI calculated for M. tbc as IC50 (HepG2)/MIC (in μM) using the lower MIC values (Table 1); for IC50: read-out: Cytotoxicity IC50, HepG2 cells, 24 h incubation (Table 1)
# M. avium CNCTC My 152/73 = assay: In vitro antimycobacterial activity, microdilution panel method (MIC); type: cell-based, Mycobacterium avium; conditions: for MIC: Mycobacterium avium
# [1] = tested on: M. tuberculosis H37Rv CNCTC My 331/88; assay: as above; type: cell-based, Mycobacterium tuberculosis; conditions: for MIC: Mycobacterium tuberculosis, H37RV
# [2] = RP-HPLC, C18, MeOH 70% / H2O 30%, 30 °C
# [3] = tested on: M. avium ssp. avium Chester CNCTC My 80/72; assay: In vitro antimycobacterial activity, microdilution panel method (MIC); type: cell-based, Mycobacterium avium; conditions: for MIC: Mycobacterium avium
# [4] = tested on: M. kansasii Hauduroy CNCTC My 235/80; assay: as above; type: cell-based, Mycobacterium kansasii; conditions: for MIC: Mycobacterium kansasii; for MIC / Antimycobacterial activity MIC, M. kansasii: M. kansasii Hauduroy CNCTC My 235/80
# in vitro = conditions: human
# [5] = M. tuberculosis H37Rv, primary test, dilution scale 100–[…], Šula's medium pH 5.6
# [6] = pH 5.6, M. tuberculosis H37Rv, primary test, dilution scale 100–[…], Šula's medium pH 5.6, read-out: Antimycobacterial activity MIC, M. tbc
# [7] = M. tuberculosis H37Rv, retest with extended dilution scale up to 0.39 µg/mL, read-out: Antimycobacterial activity MIC, M. tbc (confirmation retest, value in parentheses)
# [8] = M. tuberculosis H37Rv, retest with extended dilution scale up to 0.39 µg/mL
SMILES,Cytotoxicity SI (HepG2 cells),IC50 (HepG2 cells),"Antimycobacterial activity MIC, M. avium (M. avium CNCTC My 152/73)","Antimycobacterial activity MIC, M. tbc [1, 5]",Lipophilicity logk [2],"Antimycobacterial activity MIC, M. avium [3]",Activity against M. kansasii (in words) [4],MIC [4],MIC (M. avium CNCTC My 152/73),"MIC [1, 6]",IC50 (in vitro),MIC [3],"MIC [1, 7]","Antimycobacterial activity MIC, M. kansasii [4]","Antimycobacterial activity MIC, M. tbc (confirmation retest, value in parentheses) [1, 8]",Antimycobacterial activity against M. tbc H37Rv (in words) [1]
O=C(Nc1cccc([N+](=O)[O-])c1)c1cnc(Cl)cn1 [Compound 25],2.91,32.7 µM,>100 µg/mL,3.13 µg/mL,0.344,>100 µg/mL,,,,,,,,,,
"O=C(Nc1cccc(O)c1)c1cnc(Cl)cn1 [Compound 3, 5-Chloro-N-(3-hydroxyphenyl)pyrazine-2-carboxamide]",1.28,,,,,,inactive,50 µg/mL,100 µg/mL,6.25 µg/mL,32.1 µM,> 100 µg/mL,,,,
"O=C(Nc1cccc(C(F)(F)F)c1)c1cnc(Cl)cn1 [Compound 28, 5-Chloro-N-(3-(trifluoromethyl)phenyl)pyrazine-2-carboxamide]",3.99,,,,,,,12.5 µg/mL,> 100 µg/mL,3.13 µg/mL,41.4 µM,> 100 µg/mL,6.25 µg/mL,,,
O=C(Nc1cccc(Cl)c1)c1cnc(Cl)cn1 [Compound 13],,,25 µg/mL,6.25 µg/mL,0.587,25 µg/mL,,,,,,,,25 µg/mL,3.13 µg/mL,
O=C(Nc1ccccc1F)c1cnc(Cl)cn1 [Compound 9],,,>100 µg/mL,6.25 µg/mL,0.490,>100 µg/mL,,,,,,,,12.5 µg/mL,,
"N#Cc1cccc(NC(=O)c2cnc(Cl)cn2)c1 [Compound 26, 5-Chloro-N-(3-cyanophenyl)pyrazine-2-carboxamide]",,,,,,,,3.13 µg/mL,> 50 µg/mL,25 µg/mL,,> 50 µg/mL,,≤ 6.25 µg/mL,,low activity
"N#Cc1ccc(NC(=O)c2cnc(Cl)cn2)cc1 [Compound 27, 5-Chloro-N-(4-cyanophenyl)pyrazine-2-carboxamide]",,,,,,,,> 100 µg/mL,> 100 µg/mL,> 100 µg/mL,,> 100 µg/mL,,,,inactive
"O=C(Nc1ccccc1O)c1cnc(Cl)cn1 [Compound 2, 5-Chloro-N-(2-hydroxyphenyl)pyrazine-2-carboxamide]",2.39,,,,,,,,> 100 µg/mL,3.13 µg/mL,30 µM,> 100 µg/mL,0.78 µg/mL,,,
"O=C(Nc1ccccc1[N+](=O)[O-])c1cnc(Cl)cn1 [Compound 24, 5-Chloro-N-(2-nitrophenyl)pyrazine-2-carboxamide]",,,,,,,,,> 100 µg/mL,12.5 µg/mL,,> 100 µg/mL,,,,
"CCc1ccc(NC(=O)c2cnc(Cl)cn2)cc1 [Compound 7, 5-Chloro-N-(4-ethylphenyl)pyrazine-2-carboxamide]",2.41,,,,,,,,> 100 µg/mL,1.56 µg/mL,7.17 µM,> 100 µg/mL,0.78 µg/mL,,,
O=C(Nc1ccccc1Cl)c1cnc(Cl)cn1 [Compound 12],0.58,6.72 µM,>100 µg/mL,3.13 µg/mL,0.819,>100 µg/mL,,,,,,,,,0.78 µg/mL,
"Cc1ccc(F)cc1NC(=O)c1cnc(Cl)cn1 [Compound 19, 5-Chloro-N-(5-fluoro-2-methylphenyl)pyrazine-2-carboxamide]",,,,,,,,25 µg/mL,> 100 µg/mL,3.13 µg/mL,,> 100 µg/mL,6.25 µg/mL,,,
"O=C(Nc1ccc(F)cc1F)c1cnc(Cl)cn1 [Compound 11, 5-Chloro-N-(2,4-difluorophenyl)pyrazine-2-carboxamide]",,,,,,,,6.25 µg/mL,> 50 µg/mL,3.13 µg/mL,,> 50 µg/mL,,,,
"O=C(Nc1ccc(O)c(Cl)c1)c1cnc(Cl)cn1 [Compound 22, 5-Chloro-N-(3-chloro-4-hydroxyphenyl)pyrazine-2-carboxamide]",1.17,,,,,,,> 100 µg/mL,25 µg/mL,3.13 µg/mL,12.9 µM,50 µg/mL,0.39 µg/mL,,,
O=C(Nc1ccc(Br)cc1)c1cnc(Cl)cn1 [Compound 17],,,>100 µg/mL,3.13 µg/mL,0.660,>100 µg/mL,,,,,,,,6.25 µg/mL,,
"O=C(Nc1cc([N+](=O)[O-])ccc1O)c1cnc(Cl)cn1 [Compound 23, 5-Chloro-N-(2-hydroxy-5-nitrophenyl)pyrazine-2-carboxamide]",0.29,,,,,,,,50 µg/mL,1.56 µg/mL,1.52 µM,50 µg/mL,1.56 µg/mL,,,
"O=C(Nc1cccc(F)c1)c1cnc(Cl)cn1 [Compound 10, 5-Chloro-N-(3-fluorophenyl)pyrazine-2-carboxamide]",,,,,,,,12.5 µg/mL,> 100 µg/mL,6.25 µg/mL,,> 100 µg/mL,,,,
"Cc1ccc(C)c(NC(=O)c2cnc(Cl)cn2)c1 [Compound 6, 5-Chloro-N-(2,5-dimethylphenyl)pyrazine-2-carboxamide]",1.96,,,,,,,> 100 µg/mL,> 100 µg/mL,1.56 µg/mL,11.7 µM,> 100 µg/mL,1.56 µg/mL,,,
"Cc1ccc(Cl)c(NC(=O)c2cnc(Cl)cn2)c1 [Compound 20, 5-Chloro-N-(2-chloro-5-methylphenyl)pyrazine-2-carboxamide]",2.86,,,,,,,25 µg/mL,> 100 µg/mL,1.56 µg/mL,15.8 µM,> 100 µg/mL,,,,
"O=C(Nc1ccc(Cl)c(Cl)c1)c1cnc(Cl)cn1 [Compound 14, 5-Chloro-N-(3,4-dichlorophenyl)pyrazine-2-carboxamide]",0.88,,,,,,,> 100 µg/mL,> 100 µg/mL,3.13 µg/mL,9.1 µM,> 100 µg/mL,,,,
"CC(C)c1ccc(NC(=O)c2cnc(Cl)cn2)cc1 [Compound 8, 5-Chloro-N-(4-isopropylphenyl)pyrazine-2-carboxamide]",2.55,,,,,,,,> 100 µg/mL,1.56 µg/mL,14.4 µM,> 100 µg/mL,,,,
"O=C(Nc1ccc(C(F)(F)F)cc1)c1cnc(Cl)cn1 [Compound 29, 5-Chloro-N-(4-(trifluoromethyl)phenyl)pyrazine-2-carboxamide]",1.64,,,,,,,12.5 µg/mL,> 100 µg/mL,1.56 µg/mL,8.5 µM,> 100 µg/mL,3.13 µg/mL,,,
"O=C(Nc1cccc(Br)c1)c1cnc(Cl)cn1 [Compound 16, 5-Chloro-N-(3-bromophenyl)pyrazine-2-carboxamide]",,,,,,,,25 µg/mL,> 100 µg/mL,25 µg/mL,,> 100 µg/mL,,,,
